Laboratory results reported in patent publication US12077534B2, “Aza-heterobicyclic inhibitors of MAT2A and methods of use for treating cancer” (Les Laboratoires Servier SAS, priority 2018, dated 2024).

Legend:
[1] = tested on: MAT2A activity (SAM) in HCT116 cells with deleted MTAP gene; assay: Cellular assay of target engagement (SAM) by LC-MS/MS; format: cell-based; conditions: Homo sapiens, HCT-116; HCT116 MTAP −/−, 72 hrs; read-out: Cell 72 h SAM Inhibition (MTAP −/−)
In short: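 HCT116 MTAP-deleted cells treated with 10-point 3-fold DMSO serial dilutions of compound for 72 hrs at 37° C. Cells lysed in cold 80% methanol/acetic acid extraction buffer with d3-SAM internal standard; SAM quantified by LC-MS/MS (MRM m/z 399.2→250.1).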

[2] = tested on: HCT116 MTAP+/+; assay: Inhibition of cellular proliferation (Cell Titer Glo), HCT116 MTAP+/+; format: cell-based; conditions: Homo sapiens, HCT-116, 96 h, 4 days, read-out: 4 Day Relative Growth Inhibition (MTAP +/+)
In short: (§1)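 Isogenic HCT116 MTAP+/+ and MTAP−/− cells treated 24 h after plating with 10-point 3-fold dilutions, then grown 4 days at 37 °C/5% CO2. ATP content read by Cell Titer Glo luminescence, blank-subtracted and normalized to 0.2% DMSO control, plotted as percent proliferation change versus log molar concentration.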

[3] = tested on: HCT116 MTAP−/−; assay: Inhibition of cellular proliferation (Cell Titer Glo), HCT116 MTAP-/-; format: cell-based; conditions: Homo sapiens, HCT-116, 96 h, 4 days, read-out: 4 Day Relative Growth Inhibition (MTAP −/−)
In short: as §1

[4] = target: T1, MAT2A homodimer (Homo sapiens, UniProt P31153); assay: MAT2A biochemical assay (phosphate release, PiColorLock Gold); conditions: recombinant MAT2A homodimer, 60 min pre-incubation, 25° C.; read-out: Enzyme Inhibition
T1 construct: inferred from Ni sepharose purification and imidazole elution; made in house; host or cells: SF9 insect cells, recombinant baculovirus (Bac to Bac, pFASTBAC1)
T1 sequence (P31153 whole entry): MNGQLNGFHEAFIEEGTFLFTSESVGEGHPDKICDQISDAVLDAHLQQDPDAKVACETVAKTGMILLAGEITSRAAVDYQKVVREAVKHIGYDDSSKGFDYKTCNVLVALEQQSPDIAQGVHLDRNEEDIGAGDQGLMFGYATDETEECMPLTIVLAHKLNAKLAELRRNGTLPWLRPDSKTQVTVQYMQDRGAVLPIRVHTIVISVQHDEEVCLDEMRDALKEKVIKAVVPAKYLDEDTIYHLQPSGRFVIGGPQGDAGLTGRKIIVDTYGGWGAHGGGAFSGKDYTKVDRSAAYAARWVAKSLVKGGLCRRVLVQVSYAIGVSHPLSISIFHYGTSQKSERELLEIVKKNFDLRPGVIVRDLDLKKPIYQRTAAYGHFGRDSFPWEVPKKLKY
In short: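 Baculovirus/Sf9-expressed, Ni-purified MAT2A homodimer (4 µg/mL in pH 8.0 Tris/KCl/MgCl2 buffer) preincubated 60 min at 25 °C with compound (2% DMSO final). Substrate mix of 500 µM ATP and 400 µM L-methionine added; 60 min at 25 °C; released phosphate quantified colorimetrically against a phosphate standard curve.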

Compound	IC50 [1] [µM]	IC50 [2] [µM]	IC50 [3] [µM]	IC50 [4] [µM]
Cn1cc2cc(-n3nc4ccc(OCC(F)F)nc4c(-c4ccc5[nH]cc(C#N)c5c4)c3=O)ccc2n1 [Example 331, 5-(6-(2,2-difluoroethoxy)-2-(2-methyl-2H-indazol-5-yl)-3-oxo-2,3-dihydropyrido[3,2-c]pyridazin-4-yl)-1H-indole-3-carbonitrile]	< 0.1	≥ 1	< 0.1	< 0.1
COC1CC=C(n2nc3ccc(OCC(F)F)nc3c(-c3ccc(OC(F)F)cc3)c2=O)CC1 (stereo not shown) [Example 187]	0.1 to 1	≥ 1	≥ 1	< 0.1
Cn1cc2cc(-n3nc4ccc(OCC5CC5)nc4c(-c4ccc(C5CC5)nc4)c3=O)ccc2n1 [Example 303]	< 0.1	≥ 1	< 0.1	< 0.1
[2H]C([2H])([2H])Oc1ccc(-c2c(=O)n(-c3ccc4nn(C)cc4c3)nc3ccc(OCC(F)F)nc23)cn1 [Example 139]	< 0.1	0.1 to 1	< 0.1	< 0.1
O=c1c(-c2ccc(OC(F)F)cc2)c2nc(OCC(F)F)ccc2nn1-c1ccncc1 [Example 188]	0.1 to 1	≥ 1	0.1 to 1	< 0.1
O=c1c(-c2ccc(Cl)cc2)c2nc(OCC(F)F)ccc2nn1-c1ccc2ncsc2c1 [Example 143]	< 0.1	≥ 1	< 0.1	< 0.1
Cn1cc2cc(-n3nc4ccc(OCC(F)F)nc4c(-c4ccc(OC(F)(F)F)cc4)c3=O)ccc2n1 [Example 109]	< 0.1	≥ 1	< 0.1	< 0.1
CCOc1ccc2nn(-c3ccc(OC)cc3)c(=O)c(-c3ccc(OC(F)F)nc3)c2n1 [Example 122]	0.1 to 1	≥ 1	< 0.1	< 0.1
Cn1cc2cc(-n3nc4ccc(OCC(F)F)nc4c(-c4ccc(O)cc4)c3=O)ccc2n1 [Example 207, 6-(2,2-difluoroethoxy)-4-(4-hydroxyphenyl)-2-(2-methyl-2H-indazol-5-yl)pyrido[3,2-c]pyridazin-3(2H)-one]	< 0.1	≥ 1	0.1 to 1	< 0.1
COc1c2cc(-n3nc4ccc(OCC(F)F)nc4c(-c4ccc(OC(F)F)cc4)c3=O)ccc2nn1C [Example 171]	< 0.1	≥ 1	< 0.1	< 0.1
O=c1c(-c2ccc(OC(F)F)cc2)c2nc(OCC(F)F)ccc2nn1-c1ccc(F)cc1 [Example 191]	0.1 to 1	≥ 1	≥ 1	0.1 to 1
Cn1cc2cc(-n3nc4ccc(OCC(F)F)nc4c(-c4ccc(OC(F)F)nc4)c3=O)ccc2n1 [Example 126]	< 0.1	≥ 1	< 0.1	< 0.1
[2H]C([2H])([2H])Oc1c2cc(-n3nc4ccc(OCC(F)F)nc4c(-c4ccc(OC(F)F)cc4)c3=O)ccc2nn1C [Example 175]	< 0.1	0.1 to 1	< 0.1	< 0.1
CCOc1ccc2nn(-c3ccc4nn(C)cc4c3)c(=O)c(-c3ccc(OC(F)(F)F)cc3)c2n1 [Example 104]	0.1 to 1	≥ 1	0.1 to 1	< 0.1
Cn1cc2cc(-n3nc4ccc(NCC(F)(F)F)nc4c(-c4ccc(OC(F)F)cc4)c3=O)ccc2n1 [Example 160]	< 0.1	≥ 1	< 0.1	< 0.1
O=c1c(-c2ccc(C3CC3)cc2)c2nc(OCC(F)F)ccc2nn1-c1ccc2ncsc2c1 [Example 304]	< 0.1	0.1 to 1	0.1 to 1	< 0.1

Compound	IC50 [1] [µM]	IC50 [2] [µM]	IC50 [3] [µM]	IC50 [4] [µM]
COc1nc2ccc(-n3nc4ccc(OCC(F)F)nc4c(-c4ccc(OC(F)F)cc4)c3=O)cc2n1C [Example 172]	< 0.1	≥ 1	< 0.1	< 0.1
CCNc1ccc2nn(-c3ccc4nn(C)cc4c3)c(=O)c(-c3ccc(C(F)F)nc3)c2n1 [Example 310]	< 0.1	≥ 1	< 0.1	< 0.1
[2H]C([2H])([2H])Oc1ccc(-c2c(=O)n(-c3ccc4nn(C)cc4c3)nc3ccc(OCC)nc23)cc1 [Example 110]	< 0.1	0.1 to 1	< 0.1	< 0.1
Cc1ccc(-c2c(=O)n(-c3ccc4nn(C)cc4c3)nc3ccc(NCC(F)(F)F)nc23)cn1 [Example 301, 2-(2-methyl-2H-indazol-5-yl)-4-(6-methylpyridin-3-yl)-6-((2,2,2-trifluoroethyl)amino)pyrido[3,2-c]pyridazin-3(2H)-one]	< 0.1	≥ 1	< 0.1	< 0.1
CN(C)Cc1cc(OCC(F)F)nc2c(-c3ccc(OC(F)F)cc3)c(=O)n(-c3ccc4nn(C)cc4c3)nc12 [Example 211, 6-(2,2-difluoroethoxy)-4-(4-(difluoromethoxy)phenyl)-8-((dimethylamino)methyl)-2-(2-methyl-2H-indazol-5-yl)pyrido[3,2-c]pyridazin-3(2H)-one]	0.1 to 1	≥ 1	0.1 to 1	< 0.1
Cn1cc2cc(-n3nc4cc(F)c(NCC(F)(F)F)nc4c(-c4ccc(OC(F)F)cc4)c3=O)ccc2n1 [Example 197]	< 0.1	≥ 1	< 0.1	< 0.1
Cn1cc2cc(-n3nc4ccc(NC5CC5)nc4c(-c4ccc(OC(F)F)cc4)c3=O)ccc2n1 [Example 162]	< 0.1	≥ 1	< 0.1	< 0.1
CCNc1ccc2nn(-c3ccc4nn(C)cc4c3)c(=O)c(-c3ccc(C)nc3)c2n1 [Example 305]	< 0.1	≥ 1	< 0.1	< 0.1
CC(C)Oc1ccc2nn(-c3ccc4ncsc4c3)c(=O)c(-c3ccc(OC(F)F)cc3)c2n1 [Example 146]	< 0.1	≥ 1	< 0.1	< 0.1
O=c1c(-c2ccc(C3CC3)nc2)c2nc(OCC(F)F)ccc2nn1-c1ccc2ncsc2c1 [Example 147]	0.1 to 1	≥ 1	0.1 to 1	< 0.1
Cn1cc2cc(-n3nc4ccc(OCCC(F)(F)F)nc4c(-c4ccc(OC(F)F)cc4)c3=O)ccc2n1 [Example 132]	0.1 to 1	≥ 1	0.1 to 1	< 0.1
O=c1c(-c2ccc(OC(F)F)nc2)c2nc(OCC(F)F)ccc2nn1-c1ccc2ncsc2c1 [Example 148]	0.1 to 1	≥ 1	0.1 to 1	< 0.1
CCOc1ccc2nn(-c3ccc4nn(C)cc4c3)c(=O)c(-c3ccc(C(F)(F)F)nc3)c2n1 [Example 127]	< 0.1	≥ 1	< 0.1	< 0.1
Cn1cc2cc(-n3nc4ccc(OCC(F)(F)F)nc4c(-c4ccc(OC(F)F)cc4)c3=O)ccc2n1 [Example 123]	< 0.1	0.1 to 1	< 0.1	< 0.1
Cc1c2cc(-n3nc4ccc(OCC(F)F)nc4c(-c4ccc(Cl)cc4)c3=O)ccc2nn1C [Example 173]	< 0.1	0.1 to 1	< 0.1	< 0.1
